From PubChem BioAssay AID743477 (Broad Institute, 2014)
Several values for one entry are separate records, joined by “and”; a condition that tells them apart may be missing. Equal values may be shown once. Activity calls are given as the source filed them.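 How the source made its calls: active means fitted curve drops to -35% activity change at a dose no higher than twice the top valid tested dose; inconclusive means no clear call, values can overlap the other calls; inactive means the rest, including effects opposite to the expected drop.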

System: not listed separately
Assay: TC71 Ewing sarcoma cell viability loss – luminescence, retest at dose, dry powder, confirmation (AID 743477)
Settings: TC71 Ewing sarcoma viability, CellTiter-Glo ATP, 72 h; at 1.6 µM (top of the series)

With `CCN(CCO)CCCOc1ccc2c(Nc3cc(CC(=O)Nc4cccc(F)c4)[nH]n3)ncnc2c1` the activity change, negative = cytotoxicity was -35.4% (inactive).

Same assay, conditions: TC71 Ewing sarcoma viability, CellTiter-Glo ATP, 72 h; at 6 µM (top of the series)

For `Clc1ccc(-c2cnc3ccc(-c4ccccc4)cn23)cc1`, the activity change, negative = cytotoxicity was -1.71% (inactive).

Same assay, conditions: TC71 Ewing sarcoma viability, CellTiter-Glo ATP, 72 h; at 12 µM (top of the series)

For `COc1ccc(NC(=O)Nc2ccc3c(c2)C(=O)N([C@@H](C)CO)C[C@H](C)[C@H](CN(C)Cc2ccc4c(c2)OCO4)O3)cc1`, the activity change, negative = cytotoxicity was -31.5% (inactive).

Same assay, conditions: TC71 Ewing sarcoma viability, CellTiter-Glo ATP, 72 h; at 26 µM (top of the series)

With `COc1ccc(C2=Nn3c(nnc3-c3ccccc3)SC2)cc1OC` the activity change, negative = cytotoxicity was -10.7% (inactive).
For `Cc1ccc(C2C(C#N)=C(N)Oc3cc(N)ccc32)cc1` (stereo not drawn), the activity change, negative = cytotoxicity was -0.007% (inactive).
In the case of `COC(=O)c1ccc(C2C(C#N)=C(N)Oc3cc(N)ccc32)cc1` (stereo not drawn), the activity change, negative = cytotoxicity is reported as -13.5% (inactive).
In the case of `COc1ccccc1C1C(C#N)=C(N)Oc2cc(N)ccc21` (stereo not drawn), the activity change, negative = cytotoxicity is reported as -24.3% (inactive).
For `C[C@]1(c2nc3c(C(N)=O)cccc3[nH]2)CCCN1`, the activity change, negative = cytotoxicity was -3.66% (inactive).
In the case of `CN(C(=O)CCCOc1ccc2[nH]c(=O)ccc2c1)C1CCCCC1`, the activity change, negative = cytotoxicity is reported as -11% (inactive).
For `O=C(Nc1c(Cl)cncc1Cl)c1ccc(OC(F)F)c(OCC2CC2)c1`, the activity change, negative = cytotoxicity was -7.16% (inactive).
With `COc1ccc(-c2cc(NC(C)=O)c3ncc(-c4ccc(OC)c(OC)c4)n3c2)cc1` the activity change, negative = cytotoxicity was -8.1% (inactive).
With `CCC(C)(C)C(=O)O[C@H]1C[C@@H](C)C=C2C=C[C@H](C)[C@H](CC[C@@H]3C[C@@H](O)CC(=O)O3)[C@H]21` the activity change, negative = cytotoxicity was -7.31% (inactive).
With `COc1ccc(C2C(C#N)=C(N)Oc3cc(N)ccc32)cc1` (stereo not drawn) the activity change, negative = cytotoxicity was -6.57% (inactive).
In the case of `N#CC1=C(N)Oc2cc(N)ccc2C1c1ccc(Cl)cc1` (stereo not drawn), the activity change, negative = cytotoxicity is reported as -10.5% (inactive).
For `N#CC1=C(N)Oc2cc(N)ccc2C12C(=O)Nc1ccc(Br)cc12` (stereo not drawn), the activity change, negative = cytotoxicity was -13% (inactive).
In the case of `COc1ccc(CNc2nc(N3CCC[C@H]3CO)ncc2C(=O)NCc2ncccn2)cc1Cl`, the activity change, negative = cytotoxicity is reported as -6.81% (inactive).
With `CN1c2ccc(-c3ccc(C#N)cc3)cc2[C@H]2[C@H](CCN2S(=O)(=O)c2ccc(F)cc2)[C@H]1CO` the activity change, negative = cytotoxicity was -15.7% (inactive).
For `COc1ccc(C2CNC(=O)C2)cc1OC1CCCC1` (stereo not drawn), the activity change, negative = cytotoxicity was 1.67% (inactive).

Same assay, conditions: TC71 Ewing sarcoma viability, CellTiter-Glo ATP, 72 h; at 50 µM (top of the series)

In the case of `O=P1(NCCCl)OCCCN1CCCl` (stereo not drawn), the activity change, negative = cytotoxicity is reported as 3.6% (inactive).

System: TC71 Ewing sarcoma viability, CellTiter-Glo ATP, 72 h
Assay: as above
Settings: not given

Going from `CC1(C)CC(c2nc(-c3ccc4ccc(-c5ccccc5)nc4c3)c3c(N)nccn23)C1` to `Cn1cc(-c2ccncc2)c(-c2ccc(OCc3ccc4ccccc4n3)cc2)n1`, the AC35 rises from 4500 nM to 20000 nM (4.4-fold).

Compared with `Cc1ccc([N+](=O)[O-])cc1S(=O)(=O)N(C)C`, `COc1ccc(S(=O)(=O)N(C(C)=O)c2ccc(OC(C)=O)c3ccccc23)cc1[N+](=O)[O-]` is 1.8-fold lower in AC35: 7950 nM for the first, 4460 nM for the second.

`N#Cc1ccc(-c2ccc3c(c2)[C@H]2[C@H](CCN2S(=O)(=O)c2ccccc2F)[C@@H](CO)N3)cc1` and `COc1ccccc1S(=O)(=O)N1CC[C@@H]2[C@@H](CO)Nc3ccc(-c4ccc(C#N)cc4)cc3[C@@H]21` are within 1.5-fold of each other in AC35: 11000 nM for the first, 10500 nM for the second.

`N#CC1=C(N)Oc2cc(N)ccc2C1c1ccc2ccccc2c1` (stereo not drawn) and `N#CC1=C(N)Oc2cc(N)ccc2C1c1ccccc1` (stereo not drawn) are within 1.5-fold of each other in AC35: 11900 nM for the first, 12800 nM for the second.

Going from `N#CC1=C(N)Oc2cc(N)ccc2C1c1cccc(F)c1` (stereo not drawn) to `N#CC1=C(N)Oc2cc(N)ccc2C1c1cccc(Br)c1` (stereo not drawn), the AC35 falls from 1770 nM to 183 nM (9.7-fold).

Going from `Cc1ccc(S(=O)(=O)N2CC[C@@H]3[C@@H](CO)Nc4ccc(-c5ccc(C#N)cc5)cc4[C@@H]32)cc1` to `COc1ccc(S(=O)(=O)N2CC[C@@H]3[C@@H](CO)Nc4ccc(-c5ccc(C#N)cc5)cc4[C@@H]32)cc1`, the AC35 falls from 18600 nM to 3780 nM (4.9-fold).

Going from `N#CC1=C(N)Oc2cc(O)ccc2C1c1cccc(Br)c1` (stereo not drawn) to `Cc1cccc(C2C(C#N)=C(N)Oc3cc(N)ccc32)c1` (stereo not drawn), the AC35 falls from 2720 nM to 689 nM (3.9-fold).

First: Cc1cc(Nc2cc(N3CCN(C)CC3)nc(Sc3ccc(NC(=O)C4CC4)cc3)n2)n[nH]1
Second: Cc1nc(Nc2ncc(C(=O)Nc3c(C)cccc3Cl)s2)cc(N2CCN(CCO)CC2)n1
The AC35 of the first is 12-fold lower: 2150 nM for the first, 26800 nM for the second.

`CCCCc1ccc2nc(NC(=O)OC)[nH]c2c1` and `CCc1c2c(nc3ccc(O)cc13)-c1cc3c(c(=O)n1C2)COC(=O)C3(O)CC` (stereo not drawn) cannot be ordered by AC35: under 50 nM for the first, 1.99 nM for the second.

First: C=C([C@@H](O)[C@@H](C)O)[C@@H](OC)[C@]1(C)Cc2cc3cc(O[C@H]4CC(OC5CC(O)C(O)C(C)O5)C(O)C(C)O4)cc(O)c3c(O)c2C(=O)[C@H]1OC1CC(OC2CC(OC3CC(C)(O)C(O)C(C)O3)C(O)C(C)O2)C(O)C(C)O1 (stereo partly drawn)
Second: COc1cc([C@@H]2c3cc4c(cc3[C@@H](O[C@@H]3O[C@@H]5CO[C@@H](C)O[C@H]5[C@H](O)[C@H]3O)[C@H]3COC(=O)[C@H]23)OCO4)cc(OC)c1O
The AC35 of the first is 10-fold lower: 55.8 nM for the first, 577 nM for the second.

Compared with `COc1cccc(S(=O)(=O)N2CC[C@@H]3[C@@H](CO)Nc4ccc(-c5ccc(C#N)cc5)cc4[C@@H]32)c1`, `N#Cc1ccc(-c2ccc3c(c2)[C@H]2[C@H](CCN2S(=O)(=O)c2cccc(F)c2)[C@@H](CO)N3)cc1` is 2.7-fold lower in AC35: 21000 nM for the first, 7800 nM for the second.

Compared with `CC(C)(O)CCc1ccc(O)c2c(=O)c3c(O)c4c(cc3oc12)O[C@H]1OC=C[C@@]41O`, `CC[C@@]1(O)C(=O)OCc2c1cc1n(c2=O)Cc2cc3c(CN(C)C)c(O)ccc3nc2-1` is higher in AC35: under 26 nM for the first, 29 nM for the second.

Compared with `O=C(c1cc(Cc2n[nH]c(=O)c3ccccc23)ccc1F)N1CCN(C(=O)C2CC2)CC1`, `C[C@@]1(C(=O)Nc2ccc(F)nc2)CCCN1c1nc(Nc2cc(C3CC3)[nH]n2)c2cccn2n1` is 5-fold lower in AC35: 2300 nM for the first, 458 nM for the second.

Compared with `Clc1ccccc1-c1nnc2n1N=C(c1ccc3c(c1)OCO3)CS2`, `COc1ccccc1-c1nnc2n1N=C(c1ccc3c(c1)OCO3)CS2` is 20-fold lower in AC35: 411 nM for the first, 20.7 nM for the second.

First: COc1ccc(C2=Nn3c(nnc3-c3ccccc3OC)SC2)cc1OC
Second: COc1ccc(C2=Nn3c(nnc3-c3ccccc3Cl)SC2)cc1OC
The AC35 of the first is 7-fold lower: 61.3 nM for the first, 427 nM for the second.

Compared with `CN(C)c1ccc2c(c1)OC(N)=C(C#N)C2c1cccc(F)c1` (stereo not drawn), `COc1cccc(C2C(C#N)=C(N)Oc3cc(N)ccc32)c1` (stereo not drawn) is 27-fold higher in AC35: 21.4 nM for the first, 571 nM for the second.

Going from `N#CC1=C(N)Oc2cc(OC(=O)c3ccccc3)ccc2C1c1cccc(Br)c1` (stereo not drawn) to `N#CC1=C(N)Oc2ccc3ccccc3c2C1c1cccc(F)c1` (stereo not drawn), the AC35 falls from 3080 nM to 677 nM (4.5-fold).

Going from `N#CC1=C(N)Oc2cc3c(cc2C1c1cccc(Br)c1)OCO3` (stereo not drawn) to `COc1cc(C2C(C#N)=C(N)Oc3cc(N(C)C)ccc32)cc2c1OCO2` (stereo not drawn), the AC35 rises from 49.7 nM to 132 nM (2.7-fold).

`Cc1ccccc1C1C(C#N)=C(N)Oc2cc(N)ccc21` (stereo not drawn) and `N#CC1=C(N)Oc2cc(N)ccc2C1c1ccccc1Cl` (stereo not drawn) are within 1.5-fold of each other in AC35: 13200 nM for the first, 10600 nM for the second.

`Cc1c([C@H](C(Cl)Cl)[C@H](O)[C@H]2C[C@H](C)C(=O)O2)ccc2c1C(=O)[C@H]1[C@H]2C[C@@H](Br)[C@@]23O[C@@H](CO[C@H]2O)C[C@]13C` and `COc1cccc2c1C(=O)c1c(O)c3c(c(O)c1C2=O)C[C@@](O)(C(=O)CO)C[C@@H]3O[C@H]1C[C@H](N)[C@H](O)[C@H](C)O1` cannot be ordered by AC35: under 50 nM for the first, under 50 nM for the second.

Going from `COc1ccc(-c2cc(NC=O)c3ncc(-c4ccc(OC)c(OC)c4)n3c2)cc1` to `COc1ccc(-c2ccc3c(c2)[C@H]2[C@H](CCN2S(=O)(=O)c2ccc(OC)cc2)[C@@H](CO)N3C)cc1`, the AC35 rises from 563 nM to 3190 nM (5.7-fold).

Going from `CCC(C)C(=O)OC1CC(C)C=C2C=CC(C)C(CCC(O)CC(O)CC(=O)O)C21` (stereo not drawn) to `CC(C)N1c2ccccc2C(c2ccc(F)cc2)C1/C=C/C(O)CC(O)CC(=O)O` (stereo not drawn), the AC35 falls from 45300 nM to 2590 nM (17-fold).

Going from `COc1ccc(-c2ccc3c(c2)[C@H]2[C@H](CCN2S(=O)(=O)c2ccc(OC)cc2)[C@@H](CO)N3)cc1` to `COc1ccc(S(=O)(=O)N2CC[C@@H]3[C@H](CO)Nc4ccc(-c5ccc(C#N)cc5)cc4[C@@H]32)cc1`, the AC35 rises from 3720 nM to 7920 nM (2.1-fold).

Compared with `COc1ccc(C2=Nn3c(nnc3-c3ccccc3F)SC2)cc1OC`, `COc1ccccc1-c1nnc2n1N=C(c1ccc(O)c(O)c1)CS2` is 2.5-fold lower in AC35: 3340 nM for the first, 1320 nM for the second.

Compared with `O=C(Cc1ccc(-c2ccc(OCCN3CCOCC3)cc2)cn1)NCc1ccccc1`, `Nc1ncnc2c1c(-c1cccc(OCc3ccccc3)c1)cn2C1CC(CN2CCCC2)C1` (stereo not drawn) is higher in AC35: under 23.5 nM for the first, 10500 nM for the second.

Compared with `CC[C@]1(O)CC2CN(CCc3c([nH]c4ccccc34)[C@@](C(=O)OC)(c3cc4c(cc3OC)N(C=O)[C@H]3[C@@](O)(C(=O)OC)[C@H](OC(C)=O)[C@]5(CC)C=CCN6CC[C@]43[C@@H]65)C2)C1` (stereo partly drawn), `CCOC(=O)CCNc1cc(N2CCc3ccccc3CC2)nc(-c2ccccn2)n1` is higher in AC35: under 1.5 nM for the first, 2590 nM for the second.

Compared with `CN1CCN(CCOc2cc(OC3CCOCC3)c3c(Nc4c(Cl)ccc5c4OCO5)ncnc3c2)CC1`, `COc1ccc(S(=O)(=O)N2CC[C@@H]3[C@@H](CO)N(C)c4ccc(-c5ccc(F)cc5)cc4[C@@H]32)cc1` is 6.2-fold lower in AC35: 21200 nM for the first, 3410 nM for the second.

Going from `Nc1ccn([C@@H]2O[C@H](CO)[C@H](O)C2O)c(=O)n1` (stereo partly drawn) to `CN1c2ccc(-c3ccc(C#N)cc3)cc2[C@H]2[C@H](CCN2S(=O)(=O)c2cccc(F)c2)[C@H]1CO`, the AC35 rises from 585 nM to 3760 nM (6.4-fold).

`COc1ccc(S(=O)(=O)N2CC[C@@H]3[C@@H](CO)Nc4ccc(-c5cccc(C#N)c5)cc4[C@@H]32)cc1` and `COc1ccc(C(=O)CC2(O)C(=O)Nc3c(Cl)ccc(Cl)c32)cc1` (stereo not drawn) are within 1.5-fold of each other in AC35: 4140 nM for the first, 2930 nM for the second.

For `COc1ccc(OC)c(-c2nnc3n2N=C(c2ccc(OC)c(OC)c2)CS3)c1`, the AC35 was 27.6 nM and 22.6 nM.
